Values after ≈ are worked out from the molar mass of the structure shown.

Six compounds from ChEMBL document CHEMBL1151590, “Synthesis and anti-HIV activity of dibenzylbutyrolactone lignans” (Bioorg Med Chem Lett, 1996) can be followed below.

Assay [1] has as its system H9. The experiment in a line: Concentration which inhibited HIV-1 replication by 50% in acutely infected H9 cells. It counts as functional, cell-based. As to conditions: Homo sapiens.
Assay [2] has as its system H9. The experiment in a line: Compound was tested for cytotoxic activity against acutely infected H9 cell growth. As to conditions: Homo sapiens. Type of assay: functional, cell-based.

For `COc1ccc(C[C@@H]2COC(=O)C2)cc1OC`, a half-maximal response in assay [1] (EC50) required 34 µg/mL (≈ 144 µM). Half-maximal inhibition in assay [2] (IC50) required 100 µg/mL (≈ 423 µM).

Turning to `COc1ccc(C[C@@H]2COC(=O)[C@H]2Cc2ccccc2)cc1OC`, the EC50 (as a rule, the concentration that produces a half-maximal response) in assay [1] is 2.2 µg/mL (≈ 6.74 µM). Moreover, half-maximal inhibition in assay [2] (IC50) was put at 20 µg/mL (≈ 61.3 µM).

Take `COc1ccc(C[C@@H]2COC(=O)[C@H]2Cc2cccc(O)c2)cc1OC`: the EC50 in assay [1] was determined as 1.8 µg/mL (≈ 5.26 µM). Also, the midpoint of inhibition in assay [2], the IC50, lay at 4 µg/mL (≈ 11.7 µM).

With `COc1ccc(C[C@@H]2COC(=O)[C@H]2Cc2ccc(O)cc2)cc1OC`, the midpoint of the response in assay [1], the EC50, lay at 0.25 µg/mL (≈ 0.73 µM). Moreover, the IC50 (in general, the concentration needed to halve the response being measured) in assay [2] turned out to be 0.8 µg/mL (≈ 2.34 µM).

On to `COc1cc(C[C@@H]2C(=O)OC[C@H]2Cc2ccc(OC)c(OC)c2)ccc1O`, for which the EC50 in assay [1] came to 0.16 µg/mL (≈ 0.43 µM). For the same compound, in assay [2], half-maximal inhibition (IC50) was put at 0.8 µg/mL (≈ 2.15 µM).

Compound `COc1ccc(C[C@@H]2COC(=O)[C@H]2Cc2ccc(O)c(O)c2)cc1OC` yielded an EC50 in assay [1] of 1.5 µg/mL (≈ 4.19 µM). The same compound showed an IC50 in assay [2] of 6 µg/mL (≈ 16.7 µM).
